Measured values reported in the NIST ThermoML archive (doi:10.1016/j.jct.2014.06.001).

Settings: for mass density: 293 K, 101.33 kPa, Pycnometric method; for vapor or sublimation pressure: Transpiration method

CCN1C(=O)CC(=O)N(CC)C1=S [1,3-diethyl-2-thiobarbituric acid]
Settings | mass density [kg/m3]
Crystal | 1610

Crystal
Settings | vapor or sublimation pressure [kPa]
327.3 K | 0.00039
333.6 K | 0.00074
337.7 K | 0.0011
340 K | 0.00135
343 K | 0.00185
348 K | 0.00293
349.1 K | 0.0034
351 K | 0.00384
353.3 K | 0.00489
354.1 K | 0.00551
355.3 K | 0.00634
358.1 K | 0.00756
362.4 K | 0.01184
367.7 K | 0.01865
368.6 K | 0.02034
370.7 K | 0.02408
372.2 K | 0.02684
375.7 K | 0.03524
375.9 K | 0.03465

CCN1C(=O)CC(=O)N(CC)C1=O [1,3-diethylbarbituric acid]
Settings | mass density [kg/m3]
Crystal | 1320

Liquid
Settings | vapor or sublimation pressure [kPa]
328.9 K | 0.00282
333.8 K | 0.00441
339.1 K | 0.00675
346 K | 0.0115
351.2 K | 0.01744
356.2 K | 0.02535
360.3 K | 0.03131
366 K | 0.04999
371.3 K | 0.07142
376.8 K | 0.09721
380.7 K | 0.1327
